These compounds were tested against CD73 (Homo sapiens (Human), UniProt P21589) (assay: CD73 enzyme inhibition assay (Malachite Green Phosphate Detection Kit)). Conditions: CD73 protein 0.5 μg/mL (2x), Tris-HCl pH 7.3, OD 620 nm; read-out: Potency (IC50 class), inhibitory activity in CD73 enzyme assay.
Type: biochemical
Method: To evaluate the inhibitory effect of selected compounds on CD73, Malachite Green Phosphate Detection Kit (R&D, Cat #DY996) was used. Briefly, compounds were dissolved and diluted to the desired concentration using phosphate-free buffer (Tris-HCl, pH 7.3). 25 μL of the compound solution was added to an equal volume of CD73 protein solution (2× concentration, 0.5 μg/mL, Novoprotein, Cat #C446), followed by a 5-minute incubation at room temperature. 10 μL of Malachite Green Reagent A was added to each well, mixed thoroughly and incubated for 10 minutes at room temperature. 10 μL of Malachite Green Reagent B was then added to each well, mixed thoroughly and incubated for 20 minutes at room temperature. Finally, the optical density of each well was determined using a microplate reader set to 620 nm.

Sequence of CD73 (P21589 27-574): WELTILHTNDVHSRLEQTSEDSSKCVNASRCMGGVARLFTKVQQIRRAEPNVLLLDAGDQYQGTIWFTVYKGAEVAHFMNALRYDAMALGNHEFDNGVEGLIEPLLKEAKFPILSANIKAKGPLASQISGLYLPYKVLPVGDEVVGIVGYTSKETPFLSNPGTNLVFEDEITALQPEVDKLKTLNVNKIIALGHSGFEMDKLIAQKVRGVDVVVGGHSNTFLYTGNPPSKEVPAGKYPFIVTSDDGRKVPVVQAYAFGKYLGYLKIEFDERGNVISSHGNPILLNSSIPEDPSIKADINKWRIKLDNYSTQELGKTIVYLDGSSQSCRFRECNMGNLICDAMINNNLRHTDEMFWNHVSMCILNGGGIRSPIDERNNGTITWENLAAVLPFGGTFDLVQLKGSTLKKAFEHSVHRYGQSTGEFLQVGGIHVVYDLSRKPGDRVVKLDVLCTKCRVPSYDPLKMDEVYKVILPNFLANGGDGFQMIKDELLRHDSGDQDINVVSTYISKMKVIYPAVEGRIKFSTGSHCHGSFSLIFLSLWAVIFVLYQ

For `O=P(O)(O)CP(=O)(O)OC[C@H]1O[C@@H](n2cnc3c(NCc4ccccc4)nc(Cl)nc32)[C@@H](O)C1O` (stereo partly drawn) [Compound 1], which IC50 is on record?
The IC50 was less than 10 nM.

With `CC1(C)OC2C(O1)[C@@H](COP(=O)(O)CP(=O)(O)O)O[C@H]2n1cnc2c(NCc3ccccc3)nc(Cl)nc21` (stereo partly drawn) [Compound 2] as the compound, how does the IC50 read?
The IC50 was 10 to 100 nM.

With `O=P(O)(O)CP(=O)(O)OC[C@H]1O[C@@H](n2cnc3c(NCc4cccc5ccccc45)nc(Cl)nc32)[C@@H](O)C1O` (stereo partly drawn) [Compound 6] as the compound, how does the IC50 read?
The IC50 was less than 10 nM.

With `O=P(O)(O)CP(=O)(O)OC[C@H]1O[C@@H](n2cnc3c(NCc4ccc5ccccc5c4)nc(Cl)nc32)[C@@H](O)C1O` (stereo partly drawn) [Compound 7] as the compound, how does the IC50 read?
The IC50 was less than 10 nM.

With `CCCCCOC(=O)Nc1nc(Cl)nc2c1ncn2[C@@H]1O[C@H](COP(=O)(O)CP(=O)(O)O)C(O)C1O` (stereo partly drawn) [Compound 8] as the compound, how does the IC50 read?
The IC50 was 10 to 100 nM.

Which IC50 does the source give for `C[C@]12C[C@@H]3C[C@](C)(C1)C[C@@](Nc1nc(Cl)nc4c1ncn4[C@@H]1O[C@H](COP(=O)(O)CP(=O)(O)O)C(O)[C@@H]1O)(C3)C2` (stereo partly drawn) [Compound 9] here?
The IC50 was less than 10 nM.

How did the IC50 turn out when `O=P(O)(O)CP(=O)(O)OC[C@H]1O[C@@H](n2cnc3c(-n4c5ccccc5c5ccccc54)nc(Cl)nc32)C(O)C1O` (stereo partly drawn) [Compound 10] was run?
The IC50 was 10 to 100 nM.

How did the IC50 turn out when `CCCCC/C=C\C/C=C\CCCCCCCC(=O)Nc1nc(Cl)nc2c1ncn2[C@@H]1O[C@H](COP(=O)(O)CP(=O)(O)O)C(O)C1O` (stereo partly drawn) [Compound 11] was run?
The IC50 was 10 to 100 nM.

`O=P(O)(O)CP(=O)(O)OC[C@H]1O[C@@H](n2cnc3c(Nc4ccc5ccccc5c4)nc(Cl)nc32)C(O)C1O` (stereo partly drawn) [Compound 12] was tested. Which IC50 did it give?
Its IC50 is 10 to 100 nM.

How did the IC50 turn out when `CCCCCCCCCCCCOC(=O)Nc1nc(Cl)nc2c1ncn2[C@@H]1O[C@H](COP(=O)(O)CP(=O)(O)O)C(O)[C@@H]1O` (stereo partly drawn) [Compound 15] was run?
Its IC50 is less than 10 nM.

With `O=C(CC12CC3CC(CC(C3)C1)C2)Nc1nc(Cl)nc2c1ncn2[C@@H]1O[C@H](COP(=O)(O)CP(=O)(O)O)C(O)[C@@H]1O` (stereo partly drawn) [Compound 16] as the compound, how does the IC50 read?
Its IC50 is 10 to 100 nM.

For `O=P(O)(O)CP(=O)(O)OC[C@H]1O[C@@H](n2cnc3c(NC4C5CC6CC(C5)CC4C6)nc(Cl)nc32)[C@@H](O)C1O` (stereo partly drawn) [Compound 17], which IC50 is on record?
The IC50 was less than 10 nM.

With `CCCCCCCCCCCCNC(=O)Nc1nc(Cl)nc2c1ncn2[C@@H]1O[C@H](COP(=O)(O)CP(=O)(O)O)C(O)C1O` (stereo partly drawn) [Compound 18] as the compound, how does the IC50 read?
The IC50 was 10 to 100 nM.

For `CCCCCCCCCCCCN(CCCCCCCCCCCC)c1nc(Cl)nc2c1ncn2[C@@H]1O[C@H](COP(=O)(O)CP(=O)(O)O)C(O)[C@@H]1O` (stereo partly drawn) [Compound 19], which IC50 is on record?
The IC50 was greater than 100 nM.

For `O=P(O)(O)CP(=O)(O)OC[C@H]1O[C@@H](n2cnc3c(Nc4ccc5cc6ccccc6cc5c4)nc(Cl)nc32)C(O)C1O` (stereo partly drawn) [Compound 20], which IC50 is on record?
Its IC50 is 10 to 100 nM.

Which IC50 does the source give for `O=P(O)(O)CP(=O)(O)OC[C@H]1O[C@@H](n2cnc3c(NC45CC6CC(CC(C6)C4)C5)nc(Cl)nc32)[C@@H](O)C1O` (stereo partly drawn) [Compound 22] here?
Its IC50 is less than 10 nM.

With `CC1(C)[C@@H]2CC[C@@]1(C)C(OC(=O)Cc1nc(Cl)nc3c1ncn3[C@@H]1O[C@H](COP(=O)(O)CP(=O)(O)O)C(O)C1O)C2` (stereo partly drawn) [Compound 23] as the compound, how does the IC50 read?
The IC50 was 10 to 100 nM.

`O=P(O)(O)CP(=O)(O)OC[C@H]1O[C@@H](n2cnc3c(N4CCC5(CCCCC5)C4)nc(Cl)nc32)[C@@H](O)C1O` (stereo partly drawn) [Compound 31] was tested. Which IC50 did it give?
Its IC50 is less than 10 nM.

From patent US20230295213A1, “CD73 INHIBITORS AND PHARMACEUTICAL USES THEREOF” (RISEN (SUZHOU) PHARMA TECH CO., LTD., priority 2018, published 2023)
